Assay [1] relates to mechanical allodynia of the neuropathic (“Cuff”) mice. To be noted: as previously published (Benbouzid et al. 2008); cited from earlier work.
The test system of assay [2] is nociceptive sensitivity of the mice of the control (“Sham”) group. Nature of the assay: von Frey filament test in control (Sham) mice operated without cuff. The format is in vivo, C57BL/6J mice. To be noted: for Sensitivity of control (Sham) animals under chronic treatment, recapitulation (FIG. 26): chronic treatment (14-21 days), doses and modes as in examples 2, 7, 9 to 14 and 20 (formoterol 0.5 mg/kg, terbutalin 5 mg/kg); for Nociceptive sensitivity of control (Sham) mice under chronic treatment: repeated injections, doses and modes as for the Cuff mice of the same example; for Sensitivity of control (Sham) animals, dose-response recapitulation (FIG. 21): terbutalin 0.125, 0.25, 0.5 or 5 mg/kg, nortriptylin 5 mg/kg, twice a day, 3 weeks.
Experimental: (§1) The experiments were carried out on adult male mice. The pharmacological experiments were carried out using C57BL/6J mice (3-to-6 weeks old on their arrival, Charles River, L'Arbresle, France).
(§2) The model is obtained by placing a polyethylene cuff around the main branch of the right sciatic nerve of each mouse. Before any surgical procedure, the mice were assigned to the various experimental groups in such a way that the baseline mechanical nociception threshold and the weight are equivalent between the various groups. The surgical procedure was carried out under ketamin-xylazin anesthesia (ketamin: 17 mg/ml, xylazin 2.5 mg/ml, intraperitoneal injection in a proportion of 4 ml/kg) (limited liability company Centravet, Taden, France). The common branch of the sciatic nerve was exposed and a section 2 mm long of a hollow PE-20 polyethylene tube (“Harvard Apparatus”, Les Ulis, France) was placed around said branch (“Cuff” group). […] Control mice were operated on according to the same procedure, but without placing the cuff (“Sham” group). The experimental groups are made up of at least 4 mice for each control (“Sham”) group and at least 5 mice for each neuropathic (“Cuff”) group.
(§3) The mice are placed in transparent Plexiglas (registered trademark) boxes (7 cm×9 cm×7 cm) placed on a raised grid. Before the test, the mice are allowed to become accustomed to this device for 15 minutes. During the test, the von Frey filaments are applied to the plantar surface of each back foot according to ascending forces (from 0.16 g up to a foot withdrawal response, or up to a maximum of 10 g). Each filament is tested 5 times per foot and the threshold is defined by the presence of 3 or more withdrawals observed over the 5 tests. Before the surgery as described above, the animals were pretested in order to establish their baseline nociceptive response. During the chronic treatment experiments and those of repeated injection of antagonists, the tests are carried out in the mornings before the first injection of the day. During the acute agonist injection experiments, the tests are carried out after the first injection according to the time course as presented on the graphs.
(§4) For all the treatments carried out by injection, said injections were given intraperitoneally in a volume of 50 microL per 10 mg of body weight.

Assay [3] has as its system mechanical allodynia of the neuropathic (“Cuff”) mice. In words: Sciatic nerve cuff murine model of neuropathic pain, von Frey filament test in neuropathic (Cuff) mice. Format: in vivo, C57BL/6J mice. As to conditions: for Allodynia in neuropathic (Cuff) animals after chronic treatment, recapitulation (FIG. 25): chronic treatment (14-21 days), doses and modes as in examples 7, 9 to 14 and 20 (formoterol 0.5 mg/kg, terbutalin 5 mg/kg); for Mechanical allodynia of Cuff mice after the first (acute) injection: intraperitoneal, mice neuropathic for 2 weeks; for Effect on neuropathic allodynia acutely after the first injection, summary statement: first injection of the agonist, doses as in examples 7, 9, 11 and 15; for Mechanical allodynia in neuropathic (Cuff) mice after chronic treatment by inhalation: twice a day.
Experimental: as §1
All the experiments began with mice that were 6-to-9 weeks old. […] For all the other experiments, the mice were combined at four to five per cage and kept under alternating 12-hour day/night (light at 6 am) with food and water ad libitum.
as §2, §3
The surgery for installing the cuff corresponds to day 0.
as §4

Assay [4] shares this test system. In words: Cotreatment with adrenoreceptor antagonists in Cuff mice relieved by chronic nortriptylin or beta-agonist treatment, von Frey test. Format: in vivo, C57BL/6J mice. As to conditions: for Effect of ICI 118,551 on the therapeutic effect of chronic agonist treatment on neuropathic allodynia, summary statement: chronic treatment with the agonist plus beta2-adrenoreceptor antagonist ICI 118,551; for Effect of coadministered beta2-adrenoreceptor antagonist ICI 118,551 on the allodynia of agonist-treated Cuff mice: ICI 118,551 2 mg/kg intraperitoneal, after 3 weeks of agonist treatment (doses as in chronic treatment; terbutalin 0.5 mg/kg), 3 to 6 days of cotreatment.
Experimental: as §2
For the tests, in the examples which follow, the pressure is exerted on the foot of the mice by means of von Frey filaments (Bioseb, Chaville, France) (Benbouzid, M. et al. Biological Psychiatry 63:633-636 (2008) (10) and Benbouzid, M. et al. European Journal of Pain 12:591-599 (2008) (11)). The mice are placed in transparent Plexiglas (registered trademark) boxes (7 cm×9 cm×7 cm) placed on a raised grid. Before the test, the mice are allowed to become accustomed to this device for 15 minutes. During the test, the von Frey filaments are applied to the plantar surface of each back foot according to ascending forces (from 0.16 g up to a foot withdrawal response, or up to a maximum of 10 g). Each filament is tested 5 times per foot and the threshold is defined by the presence of 3 or more withdrawals observed over the 5 tests. Before the surgery as described above, the animals were pretested in order to establish their baseline nociceptive response. During the chronic treatment experiments and those of repeated injection of antagonists, the tests are carried out in the mornings before the first injection of the day. During the acute agonist injection experiments, the tests are carried out after the first injection according to the time course as presented on the graphs.
The procedure for intrathecal (i.t.) injection of the beta2-adrenoreceptor antagonist ICI 118,551 (3 μg in 10 μl) is carried out under halothane gas anesthesia according to the protocol described by Inoue et al. (Nature Medicine 2004, 10:712-718 (12)). These i.t. injections are carried out just before the intraperitoneal injection of salbutamol (2 mg/kg, i.p.). A 27-gauge injection needle connected to a 50 μl Hamilton syringe is inserted, between the L5 and L6 vertebrae, into the subarachnoid space. The correct placement of the needle is verified by the presence of a reflex movement of the tail of the mouse. The mice are pretested before this cotreatment procedure, and then cotreated twice (a morning and the corresponding evening) before being retested the following morning for their mechanical nociceptive sensitivity.

Setting [5] is: 5 mg/kg, injection twice a day (morning and evening), chronic.
Where [6] appears, read: 0.5 mg/kg, injection twice a day, chronic.

The structures appear in SMILES notation. “Also recorded” adds a separate entry of the source.

With `CN(C)CCC=C1c2ccccc2CCc2ccccc21` [amitriptylin], the “Sensitivity of the neuropathic mouse model to chronic treatment with a tricyclic antidepressant” value in assay [1] is “sensitive to chronic treatment”.

On to `CNCCC=C1c2ccccc2CCc2ccccc21` [nortriptylin], for which the “Sensitivity of the neuropathic mouse model to chronic treatment with a tricyclic antidepressant” value in assay [1] is on record as “sensitive to chronic treatment”. In assay [2], the “Sensitivity of control (Sham) animals under chronic treatment, recapitulation (FIG. 26)” value (from here on “Sensitivity of control … (FIG. 26)”) is listed as “does not impair the sensitivity of control animals”; the “Nociceptive sensitivity of control (Sham) mice under chronic treatment” value (shortened to “Nociceptive sensitivity of control”) is recorded as “not affected”; the “Sensitivity of control (Sham) animals, dose-response recapitulation (FIG. 21)” value is reported as “does not impair the sensitivity of control animals”. Also, in assay [3] (setting [5]), the “Mechanical allodynia in neuropathic (Cuff) mice after chronic treatment” value is “ineffective initially, but subsequently causes the allodynia to completely disappear”.

On to `CCC(NC(C)C)C(O)c1ccc(O)c2[nH]c(=O)ccc12` (stereo not drawn) [procaterol], for which, in assay [4], the “Effect of ICI 118,551 on the therapeutic effect of chronic agonist treatment on neuropathic allodynia, summary statement” value is “blocks the therapeutic effect”. The “Sensitivity of control … (FIG. 26)” value in assay [2] is “do not affect the control animals; also recorded: does not aspecifically affect the sensitivity of the control animals”. For the same molecule, in assay [3] (0.8 mg/kg, injection twice a day, chronic), the “Mechanical allodynia in neuropathic (Cuff) mice after chronic treatment” value was “completely suppresses the mechanical allodynia”. Besides, the “Allodynia in neuropathic (Cuff) animals after chronic treatment, recapitulation (FIG. 25)” value (shortened to “Allodynia in neuropathic (Cuff) animals”) in assay [3] was “relieve this allodynia; also recorded: causes the neuropathic pain, for example the neuropathic allodynia, to completely disappear”.

As for `CC(NCCc1ccc(O)cc1)C(O)c1ccc(O)cc1` (stereo not drawn) [ritodrin], in assay [4], the “Effect of coadministered beta2-adrenoreceptor antagonist ICI 118,551 on the allodynia of agonist-treated Cuff mice” value is recorded as “causes the allodynia to reappear” and the “Effect of ICI 118,551 on the therapeutic effect of chronic agonist treatment on neuropathic allodynia, summary statement” value was “blocks the therapeutic effect”. Also, the “Sensitivity of control … (FIG. 26)” value in assay [2] is recorded as “do not affect the control animals; also recorded: does not aspecifically affect the sensitivity of the control animals”. For the same molecule, the “Mechanical allodynia in neuropathic (Cuff) mice after chronic treatment” value in assay [3] (10 mg/kg, injection twice a day, chronic) is reported as “completely suppresses the mechanical allodynia”. The “Allodynia in neuropathic (Cuff) animals” value in assay [3] was “relieve this allodynia; also recorded: causes the neuropathic pain, for example the neuropathic allodynia, to completely disappear”.

For the molecule `CC(C)(C)NCC(O)c1ccc(O)c(CO)c1` (stereo not drawn) [salbutamol], the “Effect of intrathecal beta2-adrenoreceptor antagonist ICI 118,551 on the allodynia of agonist-treated Cuff mice” value in assay [4] (ICI 118,551 3 μg in 10 μl intrathecal before each of 2 injections of salbutamol 2 mg/kg i.p., after at least 3 weeks of salbutamol) is “causes the allodynia to reappear; also recorded: blocks the therapeutic effect”. In assay [4], the “Effect of coadministered beta2-adrenoreceptor antagonist ICI 118,551 on the allodynia of agonist-treated Cuff mice” value is “causes the allodynia to reappear” and the “Effect of ICI 118,551 on the therapeutic effect of chronic agonist treatment on neuropathic allodynia, summary statement” value is “blocks the therapeutic effect”. Also, in assay [2], the “Sensitivity of control … (FIG. 26)” value is on record as “do not affect the control animals; also recorded: does not aspecifically affect the sensitivity of the control animals” and the “Nociceptive sensitivity of control” value is recorded as “not affected”. In addition, the “Mechanical allodynia in neuropathic (Cuff) mice after chronic treatment” value in assay [3] (2 mg/kg, injection twice a day, chronic) is listed as “relieves the mechanical allodynia”. Further, the “Mechanical allodynia of Cuff mice after the first (acute) injection” value (shortened to “Mechanical allodynia of Cuff mice”) in assay [3] (2 mg/kg) is “has no effect on the mechanical allodynia”. Moreover, in assay [3], the “Allodynia in neuropathic (Cuff) animals” value is “relieve this allodynia; also recorded: causes the neuropathic pain, for example the neuropathic allodynia, to completely disappear” and the “Effect on neuropathic allodynia acutely after the first injection, summary statement” value (shortened to “Effect on neuropathic allodynia acutely”) is reported as “not observed acutely after the first injection”. Further, in assay [3] (salbutamol sulfate inhaler (Ventolin), 100 μg per session for 2 weeks, then inhaler pressed 3 times per session for 9 days), the “Mechanical allodynia in neuropathic (Cuff) mice after chronic treatment by inhalation” value was “relieves the mechanical allodynia; also recorded: relieves neuropathic allodynia”.

On to `OCc1cc(C(O)CNCCCCCCOCCCCc2ccccc2)ccc1O` (stereo not drawn) [salmeterol], for which, in assay [4], the “Effect of coadministered beta2-adrenoreceptor antagonist ICI 118,551 on the allodynia of agonist-treated Cuff mice” value is “causes the allodynia to reappear” and the “Effect of ICI 118,551 on the therapeutic effect of chronic agonist treatment on neuropathic allodynia, summary statement” value was “blocks the therapeutic effect”. In addition, in assay [2], the “Sensitivity of control … (FIG. 26)” value is “do not affect the control animals; also recorded: does not aspecifically affect the sensitivity of the control animals” and the “Nociceptive sensitivity of control” value is “not affected”. The “Mechanical allodynia in neuropathic (Cuff) mice after chronic treatment” value in assay [3] (1 mg/kg, injection twice a day, chronic) is recorded as “completely suppresses the mechanical allodynia”. Moreover, the “Mechanical allodynia of Cuff mice” value in assay [3] (1 mg/kg) is given as “has no effect on the mechanical allodynia”. For the same molecule, in assay [3], the “Allodynia in neuropathic (Cuff) animals” value was “relieve this allodynia; also recorded: causes the neuropathic pain, for example the neuropathic allodynia, to completely disappear” and the “Effect on neuropathic allodynia acutely” value is recorded as “not observed acutely after the first injection”. Besides, the “Mechanical allodynia in neuropathic (Cuff) mice after chronic treatment by inhalation” value in assay [3] (salmeterol xinafoate inhaler (Serevent), 50 μg per session for 2 weeks, then inhaler pressed four times per session for 9 days) was “relieves the mechanical allodynia; also recorded: relieves neuropathic allodynia”.

For `CC(C)(C)NCC(O)c1cc(O)cc(O)c1` (stereo not drawn) [terbutalin], in assay [4], the “Effect of coadministered beta2-adrenoreceptor antagonist ICI 118,551 on the allodynia of agonist-treated Cuff mice” value was “causes the allodynia to reappear” and the “Effect of ICI 118,551 on the therapeutic effect of chronic agonist treatment on neuropathic allodynia, summary statement” value was “blocks the therapeutic effect”. In assay [2], the “Sensitivity of control … (FIG. 26)” value is “do not affect the control animals; also recorded: does not aspecifically affect the sensitivity of the control animals”; the “Nociceptive sensitivity of control” value was “not affected”; the “Sensitivity of control (Sham) animals, dose-response recapitulation (FIG. 21)” value is on record as “do not affect”. Besides, the “Mechanical allodynia of the right (neuropathic) foot after chronic treatment” value in assay [3] (0.125 mg/kg, injection twice a day, chronic) is on record as “completely suppress the mechanical allodynia”. In assay [3] (0.25 mg/kg, injection twice a day, chronic), the “Mechanical allodynia of the right (neuropathic) foot after chronic treatment” value was “completely suppress the mechanical allodynia”. For the same molecule, in assay [3] (setting [6]), the “Mechanical allodynia in neuropathic (Cuff) mice after chronic treatment” value was “completely suppresses the mechanical allodynia” and the “Response of the non-neuropathic left foot (foot without surgery) of Cuff mice” value is reported as “without aspecifically affecting the response”. Further, in assay [3] (setting [5]), the “Mechanical allodynia in neuropathic (Cuff) mice after chronic treatment” value was “completely suppresses the mechanical allodynia”. Besides, in assay [3] (5 mg/kg), the “Mechanical allodynia of Cuff mice” value is “has no effect on the mechanical allodynia”. Moreover, the “Mechanical allodynia in neuropathic (Cuff) mice after chronic application of a gel to the skin” value in assay [3] (0.1 ml of gel twice a day, 2.5 mg/ml terbutalin hemisulfate in 5% hydroxyethylcellulose gel, from 8 days after surgery) was “relieves the mechanical allodynia; also recorded: relieves neuropathic allodynia”. Besides, the “Mechanical sensitivity of the non-neuropathic left foot of Cuff mice (FIG. 21)” value in assay [3] (0.125, 0.25, 0.5 or 5 mg/kg twice a day, chronic (3 weeks)) was “without affecting the mechanical sensitivity”. In assay [3] (0.125, 0.25, 0.5 or 5 mg/kg twice a day, chronic (3 weeks), averaged over third week), the “Allodynia of the neuropathic right foot, dose-response recapitulation (FIG. 21)” value is “suppresses the allodynia”. In addition, in assay [3], the “Allodynia in neuropathic (Cuff) animals” value is on record as “relieve this allodynia; also recorded: causes the neuropathic pain, for example the neuropathic allodynia, to completely disappear” and the “Effect on neuropathic allodynia acutely” value was “not observed acutely after the first injection”. Also, the “Mechanical allodynia in neuropathic (Cuff) mice with subcutaneous implant (continuous delivery)” value in assay [3] (silicone tube implant containing 10 mg terbutalin hemisulfate, inserted 14 days after surgery) is on record as “relieves the mechanical allodynia; also recorded: relieves neuropathic allodynia”.
